This note sets out measurements from patent publication US20260137653A1, “USE OF HEROMBOPAG OR PHARMACEUTICALLY ACCEPTABLE SALT THEREOF IN TREATMENT OF TUMOR CHEMOTHERAPY-INDUCED THROMBOCYTOPENIA” (JIANGSU HENGRUI PHARMACEUTICALS CO., LTD., priority 2022, published 2026).

This series deals with patients with chemotherapy-induced thrombocytopenia (platelet count <75×10^9/L, chemotherapy delay ≥1 week). Put plainly: Randomized placebo-controlled clinical study of herombopag olamine tablets in thrombocytopenia induced by chemotherapy for malignant tumors (Example 1). It is filed as in vivo, human. The protocol: Investigational drug: herombopag olamine tablets, 2.5 mg/tablet, manufactured and provided by Jiangsu Hengrui Pharmaceuticals Co., Ltd.
Control drug: herombopag olamine simulated tablets (placebo), 2.5 mg/tablet, identical in shape, color, weight, etc. to the herombopag olamine tablets, manufactured and provided by Jiangsu Hengrui Pharmaceuticals Co., Ltd.
Patients must meet all of the following inclusion criteria to be eligible for the study: • 1. Age between 18 years and 75 years (inclusive), regardless of gender. • 2. Pathologically or cytologically confirmed diagnosis of malignant tumors, including lung cancer (small cell or non-small cell), breast cancer, bladder cancer, etc. • 3. The subject is currently receiving a chemotherapy regimen on a 21-day cycle (excluding other chemotherapy cycle lengths) and requires the use of one or more chemotherapeutic drugs, such as: • Antimetabolites, including gemcitabine, etc.; • Platinum-based agents, including carboplatin, nedaplatin, cisplatin, lobaplatin, etc.; • Anthracyclines, including doxorubicin, daunorubicin, epirubicin, etc.; • Alkylating agents, including cyclophosphamide, ifosfamide, etc. • 4. The subject experiences a delay of ≥1 week in chemotherapy relative to the expected time due to thrombocytopenia, and the platelet count remains <75×10^9/L. • 5. Physical fitness status ECOG score of 0-1. • 6. The subject has an expected survival period of ≥12 weeks at the time of screening and is able to receive at least 2 or more cycles of the current chemotherapy regimen. • 7. Subjects of childbearing potential must agree to use reliable methods of contraception throughout the study (including male or female condoms, contraceptive foams, contraceptive gels, contraceptive films, contraceptive creams, contraceptive suppositories, abstinence, placement of intrauterine devices, etc.). Female subjects who have undergone a hysterectomy, bilateral salpingectomy, or bilateral tubal ligation or have been postmenopausal for more than 1 year and male subjects who have undergone a bilateral vasectomy or ligation are excluded. • 8. The subject is willing to participate in the study, can provide written informed consent, and has good compliance.
Patients meeting any one of the following criteria are excluded from the study: • 1. Screening or baseline platelet count of <30×10^9/L. • 2. Platelet count of <75×10^9/L prior to the first dose of chemotherapy. • 3. Hematopoietic diseases other than chemotherapy-induced thrombocytopenia (CIT), including but not limited to leukemia, primary immune thrombocytopenia, myeloproliferative diseases, multiple myeloma, and myelodysplastic syndrome. • 4. […]

For `CC1=NN(c2ccc3c(c2)CCCC3)C(=O)/C1=N\Nc1cccc(-c2ccc(C(=O)O)o2)c1O` [herombopag olamine tablets, herombopag], the “OR value for achieving the primary study endpoint, investigational group vs placebo group” value (95% CI 2.82-38.65, p=0.0001) is reported as 10.44. Further, for the setting “investigational group n=28 (17/28), starting dose 7.5 mg once daily oral, two consecutive 21-day chemotherapy cycles, 95% CI 40.6-78.5, placebo 4/31 (12.9%)”, the “proportion of subjects in which the drug is therapeutically effective (patients achieving the primary study endpoint)” value was 60.7%. Moreover, the “incidence of adverse events” value (investigational group vs placebo group) is “comparable between the investigational group and the placebo group”. For the same compound, the “grade 3 or higher grade treatment-related adverse events or treatment-related serious adverse events” value (investigational group, starting dose 7.5 mg once daily) is reported as “No grade 3 or higher grade treatment-related adverse events or treatment-related serious adverse events were observed”.
